Experiment [1] has as its target T1, hTGR5 (Homo sapiens, UniProt Q8TDU6).
T1 construct: expressed in transfected cells; host or cells: HEK293 cells, transiently co-transfected with the pCRE TA-Luciferase reporter
T1 sequence (Q8TDU6 1-330): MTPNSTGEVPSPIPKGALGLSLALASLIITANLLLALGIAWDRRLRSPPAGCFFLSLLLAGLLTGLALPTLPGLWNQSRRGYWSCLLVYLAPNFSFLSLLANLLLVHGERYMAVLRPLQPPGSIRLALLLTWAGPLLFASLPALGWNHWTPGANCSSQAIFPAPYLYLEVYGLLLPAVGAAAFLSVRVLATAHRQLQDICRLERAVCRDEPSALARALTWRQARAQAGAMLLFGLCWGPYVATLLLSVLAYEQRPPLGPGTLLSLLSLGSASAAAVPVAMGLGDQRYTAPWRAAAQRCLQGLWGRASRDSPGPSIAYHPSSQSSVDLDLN
Put plainly: TGR5/CRE Luciferase Assay (hTGR5). The note with it: for EC50: HEK 293 cells co-transfected with pCMV tag4b-TGR5h and pCRE TA-Luciferase, overnight incubation; for hTGR5 % trans: percentage of the 10 μM LCA value, HEK 293 cells transfected with hTGR5. The format is cell-based. The protocol:
(§1) TGR5/CRE Luciferase Assay
(§2) In the following Tables TGR5 activation by compounds of the invention and subsequent increase in intracellular cAMP were evaluated using a luciferase reporter gene assay. Human embryonic kidney (HEK) 293 cells were transiently co-transfected with pCMV tag4b-TGR5 h (to follow hTGR5 activation) or pCMV AC6-TGR5m (to follow mTGR5 activation) expression plasmids and the pCRE TA-Luciferase reporter plasmid using the JET PEI reagent (Polyplus transfection). Transfected cells were seeded in 96-well plates and incubated overnight with the test compounds at increasing concentrations tested in duplicate. Lithocolic acid (LCA) at 10 μM was used as a positive reference compound. The cAMP-dependent luciferase expression was followed using the BrightGlo reagent according to the manufacturer (Promega) instructions. Luminescence was read with a Mithras plate reader (Berthold) or a Victor3™ V1420 (Perkin Elmer). […] Concentration-response curves were fitted by a nonlinear regression analysis to a 4 parameter logistic equation

The target in experiment [2] is T2, mTGR5 (Mus musculus, UniProt Q80SS6).
T2 construct: expressed in transfected cells; host or cells: HEK293 cells, transiently co-transfected with the pCRE TA-Luciferase reporter
T2 sequence (Q80SS6 1-329): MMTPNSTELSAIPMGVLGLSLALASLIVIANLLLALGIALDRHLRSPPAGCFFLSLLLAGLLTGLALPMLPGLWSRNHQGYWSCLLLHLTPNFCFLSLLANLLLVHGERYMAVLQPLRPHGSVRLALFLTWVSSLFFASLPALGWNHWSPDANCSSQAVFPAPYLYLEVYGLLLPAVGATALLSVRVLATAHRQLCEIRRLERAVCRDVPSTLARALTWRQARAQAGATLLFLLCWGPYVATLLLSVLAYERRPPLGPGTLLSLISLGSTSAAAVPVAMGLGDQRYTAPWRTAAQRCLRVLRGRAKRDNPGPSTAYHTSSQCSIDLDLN
The experiment can be described thus: TGR5/CRE Luciferase Assay (mTGR5). Type of experiment: cell-based. To be noted: for mTGR5 % trans: percentage of the 10 μM LCA value, HEK 293 cells transfected with mTGR5; for EC50: HEK 293 cells co-transfected with pCMV AC6-TGR5m and pCRE TA-Luciferase, overnight incubation. The protocol:
as §1, §2

For 24 compounds, EC50, hTGR5 % trans and mTGR5 % trans results are on record in patent US9932309B2, “2-oxo-3,4-dihydropyridine-5-carboxylates and their use” (UNIVERSITE DE LILLE 2 DROIT ET SANTE, priority 2014, dated 2018).

Each structure is given as a SMILES string.

In the case of `COc1ccccc1COC(=O)C1=C(C)N(C[C@H]2CCCO2)C(=O)C[C@H]1c1ccc(Cl)cc1` (racemic) [Compound 67, (2-methoxyphenyl)methyl (4S)-4-(4-chlorophenyl)-6-methyl-2-oxo-1-[[(2R)-tetrahydrofuran-2-yl]methyl]-3,4-dihydropyridine-5-carboxylate], the half-maximal effective concentration (EC50) – broadly, the concentration giving half of the maximal effect – in experiment [1] was 20 nM. As for `COc1ccccc1COC(=O)C1=C(C)N(C[C@H]2CCCO2)C(=O)C[C@H]1c1ccc(Cl)nc1` (racemic) [Example 148, (2-methoxyphenyl)methyl (4S)-4-(6-chloro-3-pyridyl)-6-methyl-2-oxo-1-[[(2R)-tetrahydrofuran-2-yl]methyl]-3,4-dihydropyridine-5-carboxylate and 2-methoxyphenyl)methyl (4R)-4-(6-chloro-3-pyridyl)-6-methyl-2-oxo-1-[[(2S)-tetrahydrofuran-2-yl]methyl]-3,4-dihydropyridine-5-carboxylate], the concentration for a half-maximal effect (EC50) in experiment [1] came out at 1 nM. On to `COc1ccccc1COC(=O)C1=C(C)N(C[C@@H]2CCCO2)C(=O)C[C@H]1c1ccc(Cl)nc1` (racemic) [Example 159, (2-Methoxyphenyl)methyl-(4S)-4-(6-chloro-3-pyridyl)-6-methyl-2-oxo-1-[[(2S)-tetrahydrofuran-2-yl]methyl]-3,4-dihydropyridine-5-carboxylate and (2-methoxyphenyl)methyl-(4R)-4-(6-chloro-3-pyridyl)-6-methyl-2-oxo-1-[[(2R)-tetrahydrofuran-2-yl]methyl]-3,4-dihydropyridine-5-carboxylate], for which, in experiment [1], a half-maximal response (EC50) required 37 nM and the hTGR5 % trans is 107%. As for `COc1ccc(C2CC(=O)NC(C)=C2C(=O)OCc2ccccc2)cc1` (stereo not shown) [Compound 6, 4-(4-Methoxy-phenyl)-2-methyl-6-oxo-1,4,5,6-tetrahydro-pyridine-3-carboxylic acid benzyl ester], the response in experiment [1] was half-maximal at 12800 nM (EC50). The compound `CC1=C(C(=O)OCc2ccccc2)C(c2cccc(Cl)c2)CC(=O)N1` (stereo not shown) [Compound 11, 4-(3-Chloro-phenyl)-2-methyl-6-oxo-1,4,5,6-tetrahydro-pyridine-3-carboxylic acid benzyl ester] had a mTGR5 % trans in experiment [2] of 10%. In experiment [2], `CC1=C(C(=O)OCc2ccccc2)C(c2ccc(Cl)cc2)CC(=O)N1` (stereo not shown) [Compound 12, Benzyl 4-(4-chlorophenyl)-6-methyl-2-oxo-3,4-dihydro-1H-pyridine-5-carboxylate] had an EC50 of 4500 nM and a mTGR5 % trans of 52%. Compound `CC1=C(C(=O)OCc2ccccc2)C(c2ccc(Cl)cc2F)CC(=O)N1` (stereo not shown) [Compound 15, benzyl 4-(4-chloro-2-fluoro-phenyl)-6-methyl-2-oxo-3,4-dihydro-1H-pyridine-5-carboxylate] gave an EC50 in experiment [1] of 3900 nM. In the case of `CC1=C(C(=O)OCc2ccccc2)C(c2ccc(Br)cc2)CC(=O)N1` (stereo not shown) [Compound 16, benzyl 4-(4-bromophenyl)-6-methyl-2-oxo-3,4-dihydro-1H-pyridine-5-carboxylate], in experiment [2], the half-maximal effective concentration (EC50) worked out at 1700 nM and the mTGR5 % trans was determined as 21%. In experiment [1], `CCC1=C(C(=O)OCc2ccccc2)C(c2ccc(Cl)cc2)CC(=O)N1C` (stereo not shown) [Compound 18, Benzyl 4-(4-chlorophenyl)-6-ethyl-1-methyl-2-oxo-3,4-dihydropyridine-5-carboxylate] registered an EC50 of 1400 nM and a hTGR5 % trans of 34%. In experiment [2], `CN1C=C(C(=O)OCc2ccccc2)C(c2ccc(Cl)cc2)CC1=O` (stereo not shown) [Compound 24, Benzyl 4-(4-chlorophenyl)-1-methyl-2-oxo-3,4-dihydropyridine-5-carboxylate] yielded an EC50 of 5800 nM and a mTGR5 % trans of 34%. Taken in the same sequence, the figures for `CCN1C(=O)CC(c2ccc(Cl)cc2)C(C(=O)OCc2ccccc2)=C1C` (stereo not shown) [Compound 34, Benzyl 4-(4-chlorophenyl)-1-ethyl-6-methyl-2-oxo-3,4-dihydropyridine-5-carboxylate] were 800 nM and 70%. In experiment [2], `CCCN1C(=O)CC(c2ccc(Cl)cc2)C(C(=O)OCc2ccccc2)=C1C` (stereo not shown) [Compound 35, Benzyl 4-(4-chlorophenyl)-6-methyl-2-oxo-1-propyl-3,4-dihydropyridine-5-carboxylate] registered an EC50 of 800 nM and a mTGR5 % trans of 76%. In experiment [1], `CCCCN1C(=O)CC(c2ccc(Cl)cc2)C(C(=O)OCc2ccccc2)=C1C` (stereo not shown) [Compound 36, Benzyl 1-butyl-4-(4-chlorophenyl)-6-methyl-2-oxo-3,4-dihydropyridine-5-carboxylate] gave a concentration giving a half-maximal response (EC50) of 600 nM and a hTGR5 % trans of 54%. `CC1=C(C(=O)OCc2ccccc2)C(c2ccc(Cl)cc2)CC(=O)N1CC1CC1` (stereo not shown) [Compound 43, Benzyl 4-(4-chlorophenyl)-1-(cyclopropylmethyl)-6-methyl-2-oxo-3,4-dihydropyridine-5-carboxylate]: a half-maximal response in experiment [2] (EC50) required 300 nM. For the compound `CC1=C(C(=O)OCc2ccccc2)C(c2ccc(Cl)cc2)CC(=O)N1CCN(C)C` (stereo not shown) [Compound 50, Benzyl 4-(4-chlorophenyl)-1-[2-(dimethylamino)ethyl]-6-methyl-2-oxo-3,4-dihydropyridine-5-carboxylate], in experiment [2], the EC50 stood at 3600 nM and the mTGR5 % trans is reported as 77%.

As for `COC(=O)CN1C(=O)CC(c2ccc(Cl)cc2)C(C(=O)OCc2ccccc2)=C1C` (stereo not shown) [Compound 57, Benzyl 4-(4-chlorophenyl)-1-(2-methoxy-2-oxo-ethyl)-6-methyl-2-oxo-3,4-dihydropyridine-5-carboxylate], the EC50 in experiment [2] is 200 nM. The compound `COCCN1C(=O)CC(c2ccc(Cl)cc2)C(C(=O)OCc2ccccc2OC)=C1C` (stereo not shown) [Compound 64, (2-methoxyphenyl)methyl 4-(4-chlorophenyl)-1-(2-methoxyethyl)-6-methyl-2-oxo-3,4-dihydropyridine-5-carboxylate] had an EC50 in experiment [1] of 100 nM. Consider `COc1ccccc1COC(=O)C1=C(C)N(CCO)C(=O)CC1c1ccc(Cl)cc1` (stereo not shown) [Compound 65, (2-methoxyphenyl)methyl 4-(4-chlorophenyl)-1-(2-hydroxyethyl)-6-methyl-2-oxo-3,4-dihydropyridine-5-carboxylate], for which, in experiment [2], the EC50 came to 300 nM and the mTGR5 % trans stood at 107%. Taken in the same sequence, the figures for `COC(=O)CN1C(=O)CC(c2ccc(Cl)cc2)C(C(=O)OCc2ccccc2OC)=C1C` (stereo not shown) [Compound 73, (2-methoxyphenyl)methyl 4-(4-chlorophenyl)-1-(2-methoxy-2-oxo-ethyl)-6-methyl-2-oxo-3,4-dihydropyridine-5-carboxylate] were 30 nM and 93%. Taken in the same sequence, the figures for `COCCN1C(=O)CC(c2ccc(Cl)cc2)C(C(=O)OCc2cccc(F)c2)=C1C` (stereo not shown) [Example 85, (3-fluorophenyl)methyl 4-(4-chlorophenyl)-1-(2-methoxyethyl)-6-methyl-2-oxo-3,4-dihydropyridine-5-carboxylate] were 700 nM and 82%.

In experiment [1], `COCCN1C(=O)CC(c2ccc(Cl)cc2)C(C(=O)OCc2ccccc2Cl)=C1C` (stereo not shown) [Example 87, (2-chlorophenyl)methyl 4-(4-chlorophenyl)-1-(2-methoxyethyl)-6-methyl-2-oxo-3,4-dihydropyridine-5-carboxylate] yielded a half-maximal effective concentration (EC50) of 500 nM and a hTGR5 % trans of 67%.

In experiment [1], `COCCN1C(=O)CC(c2ccc(Cl)cc2)C(C(=O)OCCCc2ccccc2)=C1C` (stereo not shown) [Example 111, 3-phenylpropyl 4-(4-chlorophenyl)-1-(2-methoxyethyl)-6-methyl-2-oxo-3,4-dihydropyridine-5-carboxylate] registered a half-maximal effective concentration (EC50) of 1100 nM and a hTGR5 % trans of 55%. With `COCCN1C(=O)CC(c2ccc(Cl)cc2)C(C(=O)OCC2CCCCC2)=C1C` (stereo not shown) [Example 113], in experiment [1], the EC50 was determined as 1100 nM and the hTGR5 % trans came out at 57%. Taken in the same sequence, the figures for `COc1ccccc1COC(=O)C1=C(C)N(C[C@H]2CCCO2)C(=O)C[C@H]1c1ccc(Cl)cc1` [Example 167, (2-Methoxyphenyl)methyl-(4S)-4-(4-chlorophenyl)-6-methyl-2-oxo-1-[[(2R)-tetrahydrofuran-2-yl]methyl]-3,4-dihydropyridine-5-carboxylate] were 8 nM and 103%.
